# Assay results taken from patent US20200316038A1, “METHODS AND COMPOSITIONS FOR TREATING UREA CYCLE DISORDERS, IN PARTICULAR OTC DEFICIENCY” (CAMP4 THERAPEUTICS CORPORATION, priority 2017, published 2020).
# Where a name gives a salt, the structure may show the parent alone. Read-outs that look alike come from different tables or passages of the source.
# Legend:
# OTC [1] = assay: OTC expression modulated by compounds (OTC/Geo Mean of HKs, DMSO = 1); type: cell-based, human; conditions: OTC expression
# Protocol: Analysis of the fold changes in expression as measured by qRT-PCR were performed using the technique below. The control was DMSO, and the treatment was the selected compound (CPD). The internal control was GAPDH or B-Actin, and the gene of interest is the target. First, the averages of the 4 conditions were calculated for normalization: DMSO:GAPDH, DMSO:Target, CPD: GAPDH, and CPD:Target. Next, the ΔCT of both control and treatment were calculated to normalize to internal control (GAPDH) using (DMSO:Target)−(DMSO:GAPDH)=ΔCT control and (CPD:Target)−(CPD: GAPDH)=ΔCT experimental. Then, the ΔΔCT was calculated by ΔCT experimental−ΔCT control.
# CPS1 = assay: RNA-seq, CPS1 expression in compound-treated primary human hepatocytes; type: cell-based
# [2] = tested on: multiple urea cycle-related genes; assay: RNA-seq, compounds that modulate multiple urea cycle-related genes; type: cell-based; conditions: primary human hepatocytes; for Up-regulated Genes: urea cycle-related genes significantly increased by the compound
# ARG1 = assay: RNA-seq, ARG1 expression in compound-treated primary human hepatocytes; type: cell-based; conditions: RNA-seq, primary human hepatocytes, compounds that significantly increase ARG1 expression
# OTC [3] = assay: RNA-seq, OTC expression in compound-treated primary human hepatocytes; type: cell-based
# [4] = compound at 10 uM final concentration
# [5] = RNA-seq, primary human hepatocytes, compounds that significantly increase NAGS expression
molecule,measurement,setting,value
"C=CCNC1=C2C[C@@H](C)C[C@H](OC)[C@H](O)[C@@H](C)/C=C(\C)[C@H](OC(N)=O)[C@@H](OC)/C=C\C=C(/C)C(=O)NC(=CC1=O)C2=O [17-AAG (Tanespimycin), Tanespimycin]",Max Value (OTC/Geo Mean of HKs; DMSO = 1),OTC [1]; [4],1.69
"N#CC(c1ccnc(OCc2ccc(CN3CCOCC3)cc2)n1)c1nc2ccccc2s1 (stereo not drawn) [AS602801 (Bentamapimod), Bentamapimod]",Max Value (OTC/Geo Mean of HKs; DMSO = 1),OTC [1]; [4],2.75
Cc1cc(Nc2nc(N[C@@H](C)c3ncc(F)cn3)ncc2Cl)[nH]n1 [AZD1480],Max Value (OTC/Geo Mean of HKs; DMSO = 1),OTC [1]; [4],1.46
"Cc1ccc(-n2nc(C(C)(C)C)cc2NC(=O)Nc2ccc(OCCN3CCOCC3)c3ccccc23)cc1 [BIRB 796, Doramapimod]",Max Value (OTC/Geo Mean of HKs; DMSO = 1),OTC [1]; [4],2.61
O=C(NCCCNc1nc(Nc2cccc(NC(=O)N3CCCC3)c2)ncc1I)c1cccs1 [BX795],Max Value (OTC/Geo Mean of HKs; DMSO = 1),OTC [1]; [4],2.57
CC1(C)CC[C@]2(C(=O)O)CC[C@]3(C)[C@H](C(=O)C=C4[C@@]5(C)C=C(C#N)C(=O)C(C)(C)[C@@H]5CC[C@]43C)[C@@H]2C1 [Bardoxolone],Max Value (OTC/Geo Mean of HKs; DMSO = 1),OTC [1]; [4],2.76
CCS(=O)(=O)N1CC(CC#N)(n2cc(-c3ncnc4[nH]ccc34)cn2)C1 [Baricitinib],Max Value (OTC/Geo Mean of HKs; DMSO = 1),OTC [1]; [4],1.66
N#CC(C#N)=NNc1cccc(Cl)c1 [CCCP],Max Value (OTC/Geo Mean of HKs; DMSO = 1),OTC [1]; [4],4.06
"C=CC(=O)Nc1cccc(Nc2nc(Nc3ccc(N4CCN(C(C)=O)CC4)cc3OC)ncc2C(F)(F)F)c1 [CO-1686 (Rociletinib), Rociletinib]",Fold change (Log 2) vs untreated,CPS1,0.89 Log 2
same,"NAGS expression, Fold change (Log 2) vs untreated",NAGS,1.05 Log 2
C=C1/C(=C\C=C2/CCC[C@]3(C)[C@@H]([C@H](C)CCCC(C)(C)O)CC[C@@H]23)C[C@@H](O)C[C@@H]1O [Calcitriol],"NAGS expression, Fold change (Log 2) vs untreated",NAGS; [5],1.2 Log 2
CC1(COc2ccc3c(c2)ncn3-c2ccc3cccc(N4CCC(N)CC4)c3n2)COC1 [Crenolanib],number of urea cycle genes whose expression was significantly up-regulated,[2],four
same,Up-regulated Genes,[2],"ASS1, ASL, OTC, ARG1"
same,Max Value (OTC/Geo Mean of HKs; DMSO = 1),OTC [1]; [4],2.79
c1cc(-c2cnn3cc(-c4ccc(OCCN5CCCCC5)cc4)cnc23)ccn1 [Dorsomorphin],Max Value (OTC/Geo Mean of HKs; DMSO = 1),OTC [1]; [4],4.78
"O=C(N[C@H]1CN2CCC1CC2)c1cc2cccc(Cl)c2s1 [EVP-6124 (hydrochloride) (encenicline), encenicline]","NAGS expression, Fold change (Log 2) vs untreated",NAGS; [5],0.75 Log 2
CS[C@H]1SC[C@H]2C(=O)N(C)[C@@H](C(C)C)C(=O)OC[C@@H](NC(=O)c3cnc4ccccc4n3)C(=O)N[C@@H](C)C(=O)N(C)[C@@H]1C(=O)N(C)[C@@H](C(C)C)C(=O)OC[C@@H](NC(=O)c1cnc3ccccc3n1)C(=O)N[C@@H](C)C(=O)N2C [Echinomycin],number of urea cycle genes whose expression was significantly up-regulated,[2],six
CCn1c(=O)c(-c2ccc(-c3cncs3)cc2Cl)cc2cnc(Nc3ccc(N4CCN(C)CC4)cc3)nc21 [FRAX597],number of urea cycle genes whose expression was significantly up-regulated,[2],five
"COc1cc2c(Oc3ccc(NC(=O)C4(C(=O)Nc5ccc(F)cc5)CC4)cc3F)ccnc2cc1OCCCN1CCOCC1 [Foretinib (GSK1363089), Foretinib]",Max Value (OTC/Geo Mean of HKs; DMSO = 1),OTC [1]; [4],4.09
O=C(Nc1nc2cccc(-c3ccc(CN4CCS(=O)(=O)CC4)cc3)n2n1)C1CC1 [GLPG0634],Max Value (OTC/Geo Mean of HKs; DMSO = 1),OTC [1]; [4],1.54
Cc1cc(Nc2cc(CN3CCOCC3)c3nc(C)c(Cc4ccc(Cl)cc4F)n3n2)n[nH]1 [LY2784544],Max Value (OTC/Geo Mean of HKs; DMSO = 1),OTC [1]; [4],2.78
"Cc1ccc(F)c(NC(=O)Nc2ccc(-c3cccc4[nH]nc(N)c34)cc2)c1 [Linifanib (ABT-869), Linifanib]",Max Value (OTC/Geo Mean of HKs; DMSO = 1),OTC [1]; [4],2.87
O=C(NCCCNc1nc(Nc2cccc(CN3CCOCC3)c2)ncc1C1CC1)C1CCC1 [MRT67307],Max Value (OTC/Geo Mean of HKs; DMSO = 1),OTC [1]; [4],1.68
N#CCNC(=O)c1ccc(-c2ccnc(Nc3ccc(N4CCOCC4)cc3)n2)cc1 [Momelotinib],number of urea cycle genes whose expression was significantly up-regulated,[2],three
same,Up-regulated Genes,[2],"CPS1, OTC, ARG1"
same,Max Value (OTC/Geo Mean of HKs; DMSO = 1),OTC [1]; [4],3.52
CN(c1ncccc1CNc1nc(Nc2ccc3c(c2)CC(=O)N3)ncc1C(F)(F)F)S(C)(=O)=O [PF-00562271],Max Value (OTC/Geo Mean of HKs; DMSO = 1),OTC [1]; [4],3.3
CC1(C)CC(=O)c2c(C(F)(F)F)nn(-c3ccc(C(N)=O)c(N[C@H]4CC[C@H](OC(=O)CN)CC4)c3)c2C1 [PF-04929113 (SNX-5422)],Max Value (OTC/Geo Mean of HKs; DMSO = 1),OTC [1]; [4],1.73
CNC(=O)c1ccc(C)c(-n2c(C)cc(OCc3ccc(F)cc3F)c(Br)c2=O)c1 [PH-797804],Max Value (OTC/Geo Mean of HKs; DMSO = 1),OTC [1]; [4],1.53
"C1=C/COCc2cc(ccc2OCCN2CCCC2)Nc2nccc(n2)-c2cccc(c2)COC/1 [Pacritinib (SB1518), Pacritinib]",number of urea cycle genes whose expression was significantly up-regulated,[2],five
same,Up-regulated Genes,[2],"CPS1, ASS1, ASL, OTC, ARG1"
Cn1c(=O)c(Oc2ccc(F)cc2F)cc2cnc(NC(CCO)CCO)nc21 [Pamapimod],Max Value (OTC/Geo Mean of HKs; DMSO = 1),OTC [1]; [4],1.73
Cc1ccc(Nc2nccc(N(C)c3ccc4c(C)n(C)nc4c3)n2)cc1S(N)(=O)=O [Pazopanib],Max Value (OTC/Geo Mean of HKs; DMSO = 1),OTC [1]; [4],1.48
[H]/N=C(/N)N/C(=N/[H])NCCc1ccccc1 [Phenformin],"ARG1 expression, Fold change (Log 2) vs untreated",ARG1,1.14 Log 2
same,"NAGS expression, Fold change (Log 2) vs untreated",NAGS,1.38 Log 2
"CCCC(=O)O[C@@H]1[C@@H](C)[C@@]2(O)[C@@H](C=C(CO)C[C@]3(O)C(=O)C(C)=C[C@@H]23)[C@@H]2C(C)(C)[C@]12OC(=O)CCC [Phorbol 12,13-dibutyrate]","NAGS expression, Fold change (Log 2) vs untreated",NAGS; [5],0.62 Log 2
NS(=O)(=O)C#Cc1ccccc1 [Pifithrin-u],"ARG1 expression, Fold change (Log 2) vs untreated",ARG1,1.87 Log 2
NS(=O)(=O)C#Cc1ccccc1 [Pifithrin-μ],Fold change (Log 2) vs untreated,OTC [3],0.79 Log 2
same,number of urea cycle genes whose expression was significantly up-regulated,[2],three
same,Up-regulated Genes,[2],"OTC, NAGS, ARG1"
same,"NAGS expression, Fold change (Log 2) vs untreated",NAGS; [5],1.18 Log 2
N[C@@]1(C(=O)O)CS(=O)(=O)[C@H]2[C@H](C(=O)O)[C@H]21 [Pomaglumetad],Max Value (OTC/Geo Mean of HKs; DMSO = 1),OTC [1]; [4],1.49
"COc1cc(Nc2ncc(F)c(Nc3ccc4c(n3)N(COP(=O)(O)O)C(=O)C(C)(C)O4)n2)cc(OC)c1OC [R788 (fostamatinib disodium hexahydrate), fostamatinib disodium hexahydrate]",number of urea cycle genes whose expression was significantly up-regulated,[2],three
same,Up-regulated Genes,[2],"CPS1, ARG1, SLC25A15"
Cl.Cn1c(=O)c(Oc2ccc(F)cc2F)cc2cnc(NC3CCOCC3)nc21 [R1487 Hydrochloride],Max Value (OTC/Geo Mean of HKs; DMSO = 1),OTC [1]; [4],1.64
CNC(=O)c1cc(Oc2ccc(NC(=O)Nc3ccc(Cl)c(C(F)(F)F)c3)c(F)c2)ccn1 [Regorafenib],Max Value (OTC/Geo Mean of HKs; DMSO = 1),OTC [1]; [4],1.54
same,Max Value (OTC/Geo Mean of HKs; DMSO = 1),"OTC [1]; compound at 10 uM final concentration, listed as Regorafenib (BAY 73-4506)",2.07
C=CCNc1c(O)cc2c(O)c1C[C@@H](C)C[C@H](OC)[C@H](O)[C@@H](C)/C=C(\C)[C@H](OC(N)=O)[C@@H](OC)/C=C\C=C(/C)C(=O)N2 [Retaspimycin Hydrochloride],Max Value (OTC/Geo Mean of HKs; DMSO = 1),OTC [1]; compound tested at 1 uM,1.48
COc1cc2c(cc1OC)CN(C(=O)/C=C/c1c(-c3ccccc3)n(C)c3ncccc13)CC2 [SIS3],Max Value (OTC/Geo Mean of HKs; DMSO = 1),OTC [1]; [4],1.46
same,"NAGS expression, Fold change (Log 2) vs untreated",NAGS,0.64 Log 2
O=C(NCCCn1ccnc1)c1cc(-c2ccco2)on1 [SKL2001],"NAGS expression, Fold change (Log 2) vs untreated",NAGS,0.95 Log 2
CC(C)[C@H](O)C(=O)N[C@@H](C)C(=O)N[C@@H]1C(=O)N(C)CCc2ccccc21 [Semagacestat],Max Value (OTC/Geo Mean of HKs; DMSO = 1),OTC [1]; [4],1.5
Cc1cc(C)c(/C=C2\C(=O)Nc3ccccc32)[nH]1 [Semaxanib],"NAGS expression, Fold change (Log 2) vs untreated",NAGS; [5],2 Log 2
CCN(CC)CCNC(=O)c1c(C)[nH]c(/C=C2\C(=O)Nc3ccc(F)cc32)c1C [Sunitinib],Max Value (OTC/Geo Mean of HKs; DMSO = 1),OTC [1]; [4],2.62
CCS(=O)(=O)c1cccc(-c2cc(C(=O)NC3CCN(C)CC3)c(C)c3[nH]c4ncc(C)cc4c23)c1 [TAK-901],Max Value (OTC/Geo Mean of HKs; DMSO = 1),OTC [1]; [4],2.9
"CN1CCN(CCCN2c3ccccc3Sc3ccc(C(F)(F)F)cc32)CC1 [TFP, Trifluoperazine]","NAGS expression, Fold change (Log 2) vs untreated",NAGS; [5],0.58 Log 2
COc1cc2nccc(Oc3ccc(NC(=O)Nc4cc(C)on4)c(Cl)c3)c2cc1OC [Tivozanib],Max Value (OTC/Geo Mean of HKs; DMSO = 1),OTC [1]; [4],1.57
C[C@@H]1CCN(C(=O)CC#N)C[C@@H]1N(C)c1ncnc2[nH]ccc12 [Tofacitinib citrate],Max Value (OTC/Geo Mean of HKs; DMSO = 1),OTC [1]; [4],1.6
CC(C)c1cc(CNc2nc(Nc3cc(C4CC4)[nH]n3)cc(N3CCN(C)CC3)n2)on1 [XL228],Max Value (OTC/Geo Mean of HKs; DMSO = 1),OTC [1]; [4],2.92
"COCCn1c2c([n+](Cc3cnccn3)c1C)C(=O)c1ccccc1C2=O [YM155 (Sepantronium Bromide), Sepantronium Bromide]",Max Value (OTC/Geo Mean of HKs; DMSO = 1),OTC [1]; [4],3.16
C[C@]12C=CC(=O)C=C1CC[C@@H]1[C@@H]2C(=O)C[C@@]2(C)[C@H]1CC[C@]2(O)C(=O)CO [prednisone],number of urea cycle genes whose expression was significantly up-regulated,[2],three
same,Up-regulated Genes,[2],"CPS1, NAGS, ARG1"
same,"ARG1 expression, Fold change (Log 2) vs untreated",ARG1,1.59 Log 2
same,Fold change (Log 2) vs untreated,CPS1,2.17 Log 2
same,"NAGS expression, Fold change (Log 2) vs untreated",NAGS; [5],1 Log 2
EGF: Epidermal Growth Factor; Pan-ErbB activator,Fold change (Log 2) vs untreated,OTC [3],0.64 Log 2
same,number of urea cycle genes whose expression was significantly up-regulated,[2],three
same,Up-regulated Genes,[2],"CPS1, OTC, ARG1"
same,"ARG1 expression, Fold change (Log 2) vs untreated",ARG1,1.46 Log 2
same,Fold change (Log 2) vs untreated,CPS1,1.93 Log 2
"GDF10 (BMP3b): member of the BMP family and the TGF-B superfamily (protein, UniProt P55107 369-478, looked up) Growth/differentiation factor …: QWDEPRVCSRRYLKVDFADIGWNEWIISPKSFDAYYCAGACEFPMPKIVRPSNHATIQSIVRAVGIIPGIPEPCCVPDKMNSLGVLFLDENRNVVLKVYPNMSVDTCACR","ARG1 expression, Fold change (Log 2) vs untreated",ARG1,0.97 Log 2
same,Fold change (Log 2) vs untreated,CPS1,1.66 Log 2
